Patent US20230117034A1, “PYRAZOLOTRIAZINES” (Bayer Aktiengesellschaft, priority 2019, published 2023)

Columns and labels:
CDK2/CycE = biological target: T1, CDK2/CycE (Homo sapiens, UniProt P24941); experiment: CDK2/CycE kinase assay (TR-FRET, 2 mM ATP); type: biochemical; conditions: 2 mM ATP (high ATP); median; read-out: CDK2/CyclinE, 2 mM ATP (high ATP), IC50 (median)
T1 construct: purchased ProQinase GmbH (Freiburg, Germany); host or cells: insect cells (Sf9)
In short: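 Biotin-peptide phosphorylation (0.75 µM substrate, 2 mM ATP final, 25 min, 22 °C) by Sf9-expressed GST-CDK2/GST-CycE, after a 15-min compound pre-binding step. Inhibition scaled between enzyme-free (100%) and uninhibited (0%) wells.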

[1] = biological target: T2, CYCLIN K (nuclear staining in CAL-120 cells) (Homo sapiens, UniProt O75909); experiment: CYCLIN K nuclear protein level: immunofluorescence high content analysis (CAL-120); type: cell-based; conditions: 24 h, 50% reduction of nuclear CCNK staining intensity, median, read-out: CYCLIN K degradation IF, DC50-[mol/l] (median)
T2 construct: endogenous in cells; host or cells: CAL-120 human breast cancer cells (DSMZ ACC 459)
T2 sequence (O75909 whole entry): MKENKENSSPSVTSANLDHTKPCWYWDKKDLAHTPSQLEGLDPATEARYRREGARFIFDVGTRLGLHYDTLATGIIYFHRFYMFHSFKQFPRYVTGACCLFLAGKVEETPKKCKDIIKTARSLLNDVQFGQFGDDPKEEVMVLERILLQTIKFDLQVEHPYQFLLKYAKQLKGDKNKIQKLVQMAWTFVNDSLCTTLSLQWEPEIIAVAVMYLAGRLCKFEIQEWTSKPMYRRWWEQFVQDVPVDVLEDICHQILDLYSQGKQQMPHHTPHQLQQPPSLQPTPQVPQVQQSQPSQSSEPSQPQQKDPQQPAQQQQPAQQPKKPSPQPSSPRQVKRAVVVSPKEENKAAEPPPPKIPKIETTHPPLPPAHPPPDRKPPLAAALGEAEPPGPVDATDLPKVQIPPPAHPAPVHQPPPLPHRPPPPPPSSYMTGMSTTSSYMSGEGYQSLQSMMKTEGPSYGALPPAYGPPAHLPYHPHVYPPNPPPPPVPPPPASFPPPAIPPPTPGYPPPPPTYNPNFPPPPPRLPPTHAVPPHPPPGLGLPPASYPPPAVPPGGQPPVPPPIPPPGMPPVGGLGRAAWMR
T2 sequence (Q9NYV4 whole entry partner): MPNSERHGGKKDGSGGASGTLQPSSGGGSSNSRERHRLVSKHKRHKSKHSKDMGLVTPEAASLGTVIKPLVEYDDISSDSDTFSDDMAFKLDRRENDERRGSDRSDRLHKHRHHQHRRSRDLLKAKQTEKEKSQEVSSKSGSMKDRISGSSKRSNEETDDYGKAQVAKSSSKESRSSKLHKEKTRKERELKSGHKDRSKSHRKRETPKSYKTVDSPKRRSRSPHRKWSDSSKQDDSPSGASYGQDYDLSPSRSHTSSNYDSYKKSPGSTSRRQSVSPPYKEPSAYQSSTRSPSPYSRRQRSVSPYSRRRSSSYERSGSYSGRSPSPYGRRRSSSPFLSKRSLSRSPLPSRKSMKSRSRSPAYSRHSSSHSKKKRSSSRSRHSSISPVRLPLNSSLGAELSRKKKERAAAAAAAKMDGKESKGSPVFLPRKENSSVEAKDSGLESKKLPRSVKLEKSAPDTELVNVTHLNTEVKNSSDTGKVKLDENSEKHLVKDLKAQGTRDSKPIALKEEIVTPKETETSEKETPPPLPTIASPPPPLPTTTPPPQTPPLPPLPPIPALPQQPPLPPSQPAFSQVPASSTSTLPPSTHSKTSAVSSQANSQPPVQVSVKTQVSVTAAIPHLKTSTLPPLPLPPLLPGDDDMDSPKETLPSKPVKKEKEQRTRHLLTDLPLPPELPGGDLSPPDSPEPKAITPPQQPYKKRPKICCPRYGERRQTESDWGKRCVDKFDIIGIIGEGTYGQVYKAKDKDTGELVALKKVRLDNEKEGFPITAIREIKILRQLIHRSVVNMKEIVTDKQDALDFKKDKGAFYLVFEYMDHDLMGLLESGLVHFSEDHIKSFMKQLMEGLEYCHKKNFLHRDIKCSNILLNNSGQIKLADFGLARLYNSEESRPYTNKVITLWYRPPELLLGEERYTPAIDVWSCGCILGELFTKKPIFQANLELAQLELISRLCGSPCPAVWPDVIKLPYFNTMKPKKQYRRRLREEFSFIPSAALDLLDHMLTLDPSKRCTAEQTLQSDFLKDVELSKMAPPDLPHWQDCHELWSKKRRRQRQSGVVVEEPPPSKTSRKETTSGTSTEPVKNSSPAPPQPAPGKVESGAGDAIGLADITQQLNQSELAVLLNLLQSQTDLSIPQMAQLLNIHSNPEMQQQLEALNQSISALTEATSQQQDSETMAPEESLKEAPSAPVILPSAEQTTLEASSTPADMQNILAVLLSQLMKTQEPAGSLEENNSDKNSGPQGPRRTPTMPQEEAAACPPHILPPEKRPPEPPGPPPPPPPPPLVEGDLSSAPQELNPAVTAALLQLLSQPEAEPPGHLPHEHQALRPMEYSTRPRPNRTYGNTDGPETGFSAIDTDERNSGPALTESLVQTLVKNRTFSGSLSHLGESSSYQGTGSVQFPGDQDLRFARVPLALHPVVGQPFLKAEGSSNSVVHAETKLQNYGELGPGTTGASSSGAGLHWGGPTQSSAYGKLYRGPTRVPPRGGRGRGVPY
In short: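 Readout is automated confocal image analysis of nuclear cyclin K immunofluorescence (Hoechst nuclei) after PFA fixation. Cells were CAL-120, exposed to compound dose-response 24 h at 37 °C; values are DC50 for halving nuclear CCNK signal relative to DMSO and control wells.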

[2] = system: MDA-MB-231, human breast cancer cells; experiment: Proliferation assay MDA-MB-231 (crystal violet, 4 days); type: cell-based; conditions: Homo sapiens, MDA-MB-231, 96 h, MDA-MB-231 cells, median, read-out: Prolif-MDA MB-231, IC50-[mol/l] (median)
In short: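 Crystal violet proliferation read-out after 4 days of compound exposure (0.01-10 µmol/L; solvent 0.1% DMSO). Extinction at 595 nm, set between zero-point (0%) and vehicle (100%), fitted with 4 parameters to give IC50.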

| SMILES | IC50 (CDK2/CycE) [µM] | DC50 [1] [nM] | IC50 [2] [nM] |
| --- | --- | --- | --- |
| Clc1cc2nc(CNc3nc(N4CCOCC4)nc4c(C5CC5)cnn34)[nH]c2cc1Cl [Example 301, 8-cyclopropyl-N-[(5,6-dichloro-1H-benzimidazol-2-yl)methyl]-2-(morpholin-4-yl)pyrazolo[1,5-a][1,3,5]triazin-4-amine] | > 20 | 0.59 | 7.75 |
| Brc1cnn2c(NCc3nc4ccccc4[nH]3)nc(N3CCC4(CCN4)CC3)nc12 [Example 291, N-[(1H-benzimidazol-2-yl)methyl]-8-bromo-2-(1,7-diazaspiro[3.5]nonan-7-yl)pyrazolo[1,5-a][1,3,5]triazin-4-amine] | 4.07 | 10 | 59.4 |
| CN(CC(C)(C)O)c1nc(NCc2nc3cc(F)c(Cl)cc3[nH]2)n2ncc(C3CC3)c2n1 [Example 317, 1-[(4-{[(6-chloro-5-fluoro-1H-benzimidazol-2-yl)methyl]amino}-8-cyclopropylpyrazolo[1,5-a][1,3,5]triazin-2-yl)(methyl)amino]-2-methylpropan-2-ol] | 10.7 | 0.347 | 5.21 |
| FC(F)(F)c1cnn2c(NCc3nc4cc(Cl)ccc4[nH]3)nc(N3CCOCC3)nc12 [Example 275, N-[(5-chloro-1H-benzimidazol-2-yl)methyl]-2-(morpholin-4-yl)-8-(trifluoromethyl)pyrazolo[1,5-a][1,3,5]triazin-4-amine] | > 20 | 0.303 | 3.87 |
| Fc1cc2nc(CNc3nc(N4CCOCC4)nc4c(C5CC5)cnn34)[nH]c2cc1F [Example 318, 8-cyclopropyl-N-[(5,6-difluoro-1H-benzimidazol-2-yl)methyl]-2-(morpholin-4-yl)pyrazolo[1,5-a][1,3,5]triazin-4-amine] | > 20 | 0.516 | 4.22 |
| CN1CCN(c2nc(NCc3nc4c(F)cccc4[nH]3)n3ncc(C(F)(F)F)c3n2)CC1 [Example 293, N-[(4-fluoro-1H-benzimidazol-2-yl)methyl]-2-(4-methylpiperazin-1-yl)-8-(trifluoromethyl)pyrazolo[1,5-a][1,3,5]triazin-4-amine] |  | 0.385 | 36.1 |
| Brc1cnn2c(NCc3nc4ccccc4[nH]3)nc(NCC3CC3)nc12 [Example 284, N^4-[(1H-benzimidazol-2-yl)methyl]-8-bromo-N^2-(cyclopropylmethyl)pyrazolo[1,5-a][1,3,5]triazine-2,4-diamine] | 1.99 |  | 73.5 |
| Fc1ccc2[nH]c(CNc3nc(N4CCOCC4)nc4c(C5CC5(F)F)cnn34)nc2c1 (single isomer, unassigned) [Example 314, 8-[(1R or S)-2,2-difluorocyclopropyl]-N-[(5-fluoro-1H-benzimidazol-2-yl)methyl]-2-(morpholin-4-yl)pyrazolo[1,5-a][1,3,5]triazin-4-amine] | > 20 | 1.11 | 31.3 |
| Fc1ccc2[nH]c(CNc3nc(N4CCOCC4)nc4c(Br)cnn34)nc2c1F [Example 25, 8-bromo-N-[(4,5-difluoro-1H-benzimidazol-2-yl)methyl]-2-(morpholin-4-yl)pyrazolo[1,5-a][1,3,5]triazin-4-amine] | 4.56 | 0.263 |  |
| Brc1cnn2c(NCc3nc4cccnc4[nH]3)nc(N3CCNCC3)nc12.O=CO [Example 19, 8-bromo-N-[(3H-imidazo[4,5-b]pyridin-2-yl)methyl]-2-(piperazin-1-yl)pyrazolo[1,5-a][1,3,5]triazin-4-amine formic acid salt] | 11.4 |  |  |
| Fc1ccc2[nH]c(CNc3nc(N4CCOCC4)nc4c(C(F)(F)F)cnn34)nc2c1 [Example 273, N-[(5-fluoro-1H-benzimidazol-2-yl)methyl]-2-(morpholin-4-yl)-8-(trifluoromethyl)pyrazolo[1,5-a][1,3,5]triazin-4-amine] |  | 0.66 | 6 |
| CC1(O)CCN(c2nc(NCc3nc4ccccc4[nH]3)n3ncc(Br)c3n2)C1 (single isomer, unassigned) [Example 282, (3R or S)-1-(4-{[(1H-benzimidazol-2-yl)methyl]amino}-8-bromopyrazolo[1,5-a][1,3,5]triazin-2-yl)-3-methylpyrrolidin-3-ol] | 10.2 |  | 178 |
| Brc1cnn2c(NCc3nc4c([nH]3)CCCC4)nc(N3CCOCC3)nc12 [Example 21, 8-bromo-2-(morpholin-4-yl)-N-[(4,5,6,7-tetrahydro-1H-benzimidazol-2-yl)methyl]pyrazolo[1,5-a][1,3,5]triazin-4-amine] | 2.07 |  | 285 |
| NC12CC1CN(c1nc(NCc3nc4ccccc4[nH]3)n3ncc(Br)c3n1)C2 (stereo not shown) [Example 258, 2-(1-amino-3-azabicyclo[3.1.0]hexan-3-yl)-N-(1H-benzimidazol-2-ylmethyl)-8-bromo-pyrazolo[1,5-a][1,3,5]triazin-4-amine] | 3.1 |  | 55.5 |
| NC1(C(F)(F)F)CCN(c2nc(NCc3nc4ccccc4[nH]3)n3ncc(Br)c3n2)C1 (stereo not shown) [Example 266, 2-[3-amino-3-(trifluoromethyl)pyrrolidin-1-yl]-N-(1H-benzimidazol-2-ylmethyl)-8-bromo-pyrazolo[1,5-a][1,3,5]triazin-4-amine] | 2.1 |  | 133 |
| Brc1cnn2c(NCc3nc4ccccc4[nH]3)nc(N3C[C@@H]4CN[C@@H]4C3)nc12.O=C(O)C(F)(F)F [Example 267, trifluoroacetic acid-N-[(1H-benzimidazol-2-yl)methyl]-8-bromo-2-[(1S,5S)-3,6-diazabicyclo[3.2.0]heptan-3-yl]pyrazolo[1,5-a][1,3,5]triazin-4-amine (1/1)] | 16.1 |  | 107 |
| Fc1ccc2[nH]c(CNc3nc(N4CCOCC4)nc4c(C5CCOCC5)cnn34)nc2c1F [Example 276, N-[(4,5-difluoro-1H-benzimidazol-2-yl)methyl]-2-(morpholin-4-yl)-8-(oxan-4-yl)pyrazolo[1,5-a][1,3,5]triazin-4-amine] | > 20 |  | 258 |
| c1ccc2[nH]c(CNc3nc(N4C[C@@H]5CCCN[C@@H]5C4)nc4c(C5CC5)cnn34)nc2c1 [Example 249, N-[(1H-benzimidazol-2-yl)methyl]-8-cyclopropyl-2-[(4aS,7aS)-octahydro-6H-pyrrolo[3,4-b]pyridin-6-yl]pyrazolo[1,5-a][1,3,5]triazin-4-amine] | > 20 |  | 40.3 |
| Brc1cnn2c(NCc3nc4ccncc4[nH]3)nc(N3CCOCC3)nc12 [Example 22, 8-bromo-N-[(3H-imidazo[4,5-c]pyridin-2-yl)methyl]-2-(morpholin-4-yl)pyrazolo[1,5-a][1,3,5]triazin-4-amine] | 15.5 |  | 593 |
| COc1cccc2[nH]c(CNc3nc(N4CCOCC4)nc4c(CC(F)(F)F)cnn34)nc12 [Example 277, N-[(4-methoxy-1H-benzimidazol-2-yl)methyl]-2-(morpholin-4-yl)-8-(2,2,2-trifluoroethyl)pyrazolo[1,5-a][1,3,5]triazin-4-amine] | > 20 |  | 40.2 |
| CN(CC1CC1)c1nc(NCc2nc3ccccc3[nH]2)n2ncc(Br)c2n1 [Example 287, N^4-[(1H-benzimidazol-2-yl)methyl]-8-bromo-N^2-(cyclopropylmethyl)-N^2-methylpyrazolo[1,5-a][1,3,5]triazine-2,4-diamine] | 9.48 |  | 34.3 |
| CN1CCN(c2nc(NCc3nc4ccccc4[nH]3)n3ncc(Br)c3n2)C(CO)C1 (single isomer, unassigned) [Example 280, [(2R or S)-1-(4-{[(1H-benzimidazol-2-yl)methyl]amino}-8-bromopyrazolo[1,5-a][1,3,5]triazin-2-yl)-4-methylpiperazin-2-yl]methanol] | 17.4 |  | 231 |
| Brc1cnn2c(NCc3nc4ccccc4[nH]3)nc(N3C[C@H]4CC[C@@H]3CN4)nc12 (single isomer, unassigned) [Example 316, N-[(1H-benzimidazol-2-yl)methyl]-8-bromo-2-{[1R or S-(1R*4R*)]-2,5-diazabicyclo[2.2.2]octan-2-yl}pyrazolo[1,5-a][1,3,5]triazin-4-amine] | 0.284 |  | 22.8 |
| N[C@H]1CN(c2nc(NCc3nc4ccccc4[nH]3)n3ncc(Br)c3n2)CC12CC2 [Example 259, 2-[(7R)-7-amino-5-azaspiro[2.4]heptan-5-yl]-N-[(1H-benzimidazol-2-yl)methyl]-8-bromopyrazolo[1,5-a][1,3,5]triazin-4-amine] | 1.4 |  | 31.9 |
| Brc1cnn2c(NCc3nc4ccccc4[nH]3)nc(N3C[C@H]4CN[C@H]4C3)nc12.O=C(O)C(F)(F)F [Example 255, trifluoroacetic acid-N-[(1H-benzimidazol-2-yl)methyl]-8-bromo-2-[(1R,5R)-3,6-diazabicyclo[3.2.0]heptan-3-yl]pyrazolo[1,5-a][1,3,5]triazin-4-amine (1/1)] | > 20 |  | 61 |
